Assay results published in US20210403485A1, “PYRAZOLOPYRIMIDINE DERIVATIVE AS SELECTIVE TRK INHIBITOR” (SHANDONG LUYE PHARMACEUTICAL CO., LTD., priority 2018, published 2021).

Experiments:
ALK = target: T1, ALK (Homo sapiens, UniProt Q9UM73); assay: Kinase inhibitory activity (33P-ATP, filtration-binding method, Reaction Biology Corp.); format: biochemical; conditions: read-out: Half maximal inhibitory concentration IC50 for kinases, ALK
T1 construct: purchased Reaction Biology Corp
Protocol: (§1) The mixture was incubated at room temperature for 20 minutes, added with ^33P-ATP at a certain concentration to start the reaction, and then incubated at room temperature for 120 minutes. Finally, the radioactivity of the reactant was detected by the filtration-binding method. The final kinase activity was expressed as the ratio of the remaining kinase activity in the test sample to the kinase activity of the DMSO control. The dose-response curves were fitted and IC50 values were calculated by GraphPad software.

Ros1 = target: T2, Ros1 (Homo sapiens, UniProt P08922); assay: as above; format: biochemical; conditions: read-out: Half maximal inhibitory concentration IC50 for kinases, Ros1
T2 construct: purchased Reaction Biology Corp
Protocol: as §1

TrkA = target: T3, TrkA (Homo sapiens, UniProt P04629); assay: as above; format: biochemical; conditions: read-out: Half maximal inhibitory concentration IC50 for kinases, TrkA
T3 construct: purchased Reaction Biology Corp
Protocol: as §1

TrkA-G595R = target: T4, TrkA-G595R (Homo sapiens, UniProt P04629, G595R); assay: as above; format: biochemical; conditions: read-out: Half maximal inhibitory concentration IC50 for kinases, TrkA-G595R
T4 construct: purchased Reaction Biology Corp
Protocol: as §1

TrkA-G667C = target: T5, TrkA-G667C (Homo sapiens, UniProt P04629, G667C); assay: as above; format: biochemical; conditions: read-out: Half maximal inhibitory concentration IC50 for kinases, TrkA-G667C
T5 construct: purchased Reaction Biology Corp
Protocol: as §1

TrkC = target: T6, TrkC (Homo sapiens, UniProt Q16288); assay: as above; format: biochemical; conditions: read-out: Half maximal inhibitory concentration IC50 for kinases, TrkC
T6 construct: purchased Reaction Biology Corp
Protocol: as §1

Ba/F3 LMNA-NTRK1-F589L = target: T7, Ba/F3 LMNA-NTRK1-F589L (Homo sapiens, UniProt P04629, F589L, cells depend on it); assay: Inhibitory activity against cell proliferation (CellTiter-Glo, 72 hours); format: cell-based; conditions: read-out: Half maximal inhibitory concentration IC50 of cells, Ba/F3 LMNA-NTRK1-F589L
T7 construct: fused on or other part: N-terminal part of LMNA as fusion partner (part of the key); P02545 (Prelamin-A/C)
Protocol: (§2) Adenosine Triphosphate (ATP) is an energy carrier commonly used in various life activities in nature, and is the minimum unit for energy storage and transfer. The CellTiter-Glo™ cell viability assay kit uses luciferase as an assay agent, which requires the involvement of ATP in luminescence. The CellTiter-Glo™ reagent is added into cell culture medium to measure the luminescence value. The luminescence signal is directly proportional to the amount of ATP in the system, and the ATP is positively correlated with the number of viable cells. Therefore, the proliferation of cells can be detected by detecting the ATP content using the CellTiter-Glo kit.
(§3) a) Cells in the logarithmic growth phase were collected and counted using a […]. The cell viability was detected by the trypan blue exclusion method, and the cell viability was kept over 90%.
(§4) b) The cell concentration was adjusted; 90 μL of the cell suspension was added to a 96-well plate.
(§5) a) A 10-fold compound solution was prepared, with the highest concentration being 10 μM (a total of 9 concentrations, 3-fold dilution). 10 μL of compound solution was added to each well of a 96-well plate inoculated with cells, and three duplicate wells were set for each compound concentration.
(§6) a) The CTG reagent was thawed and the cell plate was equilibrated to room temperature for 30 minutes.
(§7) b) An equal volume of CTG solution was added to each well.
(§8) c) The plate was shaken on an orbital shaker for 5 minutes to lyse the cells.
(§9) d) The cell plate was placed at room temperature for 20 minutes to stabilize the luminescence signal.
(§10) e) The luminescence value was read.
(§11) The data were analyzed using GraphPad Prism 5.0 software, fitted with nonlinear S-curve regression to give dose-response curves, and IC50 values were calculated therefrom.

Ba/F3 LMNA-NTRK1-WT = target: T8, Ba/F3 LMNA-NTRK1-WT (Homo sapiens, UniProt P04629); assay: as above; format: cell-based; conditions: read-out: Half maximal inhibitory concentration IC50 of cells, Ba/F3 LMNA-NTRK1-WT
T8 construct: fused on or other part: N-terminal part of LMNA as fusion partner (part of the key); P02545 (Prelamin-A/C)
Protocol: as §2, §3, §4, §5, §6, §7, §8, §9, §10, §11

Ba/F3 SLC34A2-ROS1-WT = target: T9, Ba/F3 SLC34A2-ROS1-WT (Homo sapiens, UniProt P08922); assay: as above; format: cell-based; conditions: read-out: Half maximal inhibitory concentration IC50 of cells, Ba/F3 SLC34A2-ROS1-WT
T9 construct: fused on or other part: N-terminal part of SLC34A2 as fusion partner (part of the key); O95436 (Sodium-dependent phosphate transport protein 2B)
Protocol: as §2, §3, §4, §5, §6, §7, §8, §9, §10, §11

BaF3 ETV6-NTRK3-WT = target: T10, BaF3 ETV6-NTRK3-WT (Homo sapiens, UniProt Q16288); assay: as above; format: cell-based; conditions: read-out: Half maximal inhibitory concentration IC50 of cells, BaF3 ETV6-NTRK3-WT
T10 construct: fused on or other part: N-terminal part of ETV6 (TEL) as fusion partner (part of the key); P41212 (Transcription factor ETV6)
Protocol: as §2, §3, §4, §5, §6, §7, §8, §9, §10, §11

BaF3 LMNA-NTRK1-G595R = target: T11, BaF3 LMNA-NTRK1-G595R (Homo sapiens, UniProt P04629, G595R, cells depend on it); assay: as above; format: cell-based; conditions: read-out: Half maximal inhibitory concentration IC50 of cells, BaF3 LMNA-NTRK1-G595R
T11 construct: fused on or other part: N-terminal part of LMNA as fusion partner (part of the key); P02545 (Prelamin-A/C)
Protocol: as §2, §3, §4, §5, §6, §7, §8, §9, §10, §11

BaF3 LMNA-NTRK1-G667A = target: T12, BaF3 LMNA-NTRK1-G667A (Homo sapiens, UniProt P04629, G667A, cells depend on it); assay: as above; format: cell-based; conditions: read-out: Half maximal inhibitory concentration IC50 of cells, BaF3 LMNA-NTRK1-G667A
T12 construct: fused on or other part: N-terminal part of LMNA as fusion partner (part of the key); P02545 (Prelamin-A/C)
Protocol: as §2, §3, §4, §5, §6, §7, §8, §9, §10, §11

BaF3 ETV6-NTRK3-G623R = target: T13, BaF3 ETV6-NTRK3-G623R (Homo sapiens, UniProt Q16288, G623R, cells depend on it); assay: as above; format: cell-based; conditions: read-out: Half maximal inhibitory concentration IC50 of cells, BaF3 ETV6-NTRK3-G623R
T13 construct: fused on or other part: N-terminal part of ETV6 (TEL) as fusion partner (part of the key); P41212 (Transcription factor ETV6)
Protocol: as §2, with “kit. In this test, the cell lines used are Ba/F3 LMNA-NTRK1-WT, Ba/F3 LMNA-NTRK1-F589L, BaF3 LMNA-NTRK1-G595R, BaF3 LMNA-NTRK1-G667A, BaF3 ETV6-NTRK3-WT, BaF3 ETV6-NTRK3-G623R, and Ba/F3 SLC34A2-ROS1-WT stable cell strains, 5000 cells/well.” for “kit.”
as §3, §4
c) Cells in the 96-well plate were incubated overnight at 37° C. with 5% CO2 and 95% humidity.
as §5
b) The cells in the 96-well plate added with compound were incubated for 72 hours at 37° C. with 5% CO2 and 95% humidity, followed by the CTG (CellTiter-Glo) analysis.
as §6, §7, §8, §9, §10, §11

[1] = Pharmacokinetic test of compounds in rats (plasma, LC/MS/MS); format: in vivo, male SD rats; conditions: for Cmax: read-out: Peak concentration Cmax
Protocol: Experimental purpose: male SD rats aged 7-9 weeks were selected as test animals, and the drug concentrations of the compounds in plasma at different time points after single intravenous injection (IV) and intragastric administration (PO) of the compounds were measured by an LC/MS/MS method, so that the pharmacokinetic behavior of the compounds disclosed herein in rats was studied, and the pharmacokinetic characteristic of the compounds was evaluated.
Drug preparation: the compounds were all prepared into clear solution by taking 5% DMSO+10% solutol+85% water as vehicle, and were used for administration in IV and PO groups. The dose of each compound administered was: IV, 3 mg/kg; PO, 10 mg/kg.

T7 sequence (P04629 whole entry F589L, the tested form may be a part): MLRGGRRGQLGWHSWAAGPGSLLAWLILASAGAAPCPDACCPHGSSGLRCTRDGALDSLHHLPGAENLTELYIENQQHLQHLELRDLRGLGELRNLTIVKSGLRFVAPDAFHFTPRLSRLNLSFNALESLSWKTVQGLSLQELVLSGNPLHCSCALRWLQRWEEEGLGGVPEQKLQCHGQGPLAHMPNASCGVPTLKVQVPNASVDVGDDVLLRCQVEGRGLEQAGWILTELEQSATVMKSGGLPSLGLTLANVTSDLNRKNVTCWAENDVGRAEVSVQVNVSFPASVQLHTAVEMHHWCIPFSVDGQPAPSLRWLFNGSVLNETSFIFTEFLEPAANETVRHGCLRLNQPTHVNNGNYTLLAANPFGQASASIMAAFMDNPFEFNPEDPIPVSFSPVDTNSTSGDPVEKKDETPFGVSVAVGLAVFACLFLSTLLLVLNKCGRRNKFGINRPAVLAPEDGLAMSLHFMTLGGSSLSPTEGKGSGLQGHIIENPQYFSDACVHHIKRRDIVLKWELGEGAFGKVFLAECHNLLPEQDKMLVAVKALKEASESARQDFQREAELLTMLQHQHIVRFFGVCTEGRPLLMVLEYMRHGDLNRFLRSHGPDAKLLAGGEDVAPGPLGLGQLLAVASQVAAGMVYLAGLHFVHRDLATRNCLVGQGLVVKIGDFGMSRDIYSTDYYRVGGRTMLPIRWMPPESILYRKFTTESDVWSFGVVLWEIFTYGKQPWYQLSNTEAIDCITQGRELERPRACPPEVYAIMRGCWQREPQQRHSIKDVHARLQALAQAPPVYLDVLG
T6 sequence (Q16288 32-839): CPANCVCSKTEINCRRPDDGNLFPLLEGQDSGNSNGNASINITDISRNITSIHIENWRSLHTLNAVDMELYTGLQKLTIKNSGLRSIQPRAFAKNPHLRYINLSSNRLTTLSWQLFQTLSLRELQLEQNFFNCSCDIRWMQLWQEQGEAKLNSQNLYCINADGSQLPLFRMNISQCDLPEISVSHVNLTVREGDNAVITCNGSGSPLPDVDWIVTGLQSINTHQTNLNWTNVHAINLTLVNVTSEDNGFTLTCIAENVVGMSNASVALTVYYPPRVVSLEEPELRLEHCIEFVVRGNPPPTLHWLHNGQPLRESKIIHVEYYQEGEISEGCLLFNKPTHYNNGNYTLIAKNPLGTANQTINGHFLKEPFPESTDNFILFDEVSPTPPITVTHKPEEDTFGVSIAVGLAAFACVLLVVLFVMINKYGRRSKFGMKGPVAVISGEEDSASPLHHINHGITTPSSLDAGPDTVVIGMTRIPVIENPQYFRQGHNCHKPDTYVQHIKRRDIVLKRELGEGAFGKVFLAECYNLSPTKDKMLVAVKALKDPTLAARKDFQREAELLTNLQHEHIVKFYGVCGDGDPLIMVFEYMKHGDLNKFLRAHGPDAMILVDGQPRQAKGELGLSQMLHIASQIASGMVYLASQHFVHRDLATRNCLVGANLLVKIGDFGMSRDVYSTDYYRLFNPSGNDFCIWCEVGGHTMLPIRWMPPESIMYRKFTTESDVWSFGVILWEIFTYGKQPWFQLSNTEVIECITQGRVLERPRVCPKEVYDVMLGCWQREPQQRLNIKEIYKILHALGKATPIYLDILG
T12 sequence (P04629 whole entry G667A, the tested form may be a part): as the sequence (P04629 whole entry F589L, the tested form may be a part) above, with L589F, G667A counted along it
T10 sequence (Q16288 whole entry, change not shown, the tested form may be a part): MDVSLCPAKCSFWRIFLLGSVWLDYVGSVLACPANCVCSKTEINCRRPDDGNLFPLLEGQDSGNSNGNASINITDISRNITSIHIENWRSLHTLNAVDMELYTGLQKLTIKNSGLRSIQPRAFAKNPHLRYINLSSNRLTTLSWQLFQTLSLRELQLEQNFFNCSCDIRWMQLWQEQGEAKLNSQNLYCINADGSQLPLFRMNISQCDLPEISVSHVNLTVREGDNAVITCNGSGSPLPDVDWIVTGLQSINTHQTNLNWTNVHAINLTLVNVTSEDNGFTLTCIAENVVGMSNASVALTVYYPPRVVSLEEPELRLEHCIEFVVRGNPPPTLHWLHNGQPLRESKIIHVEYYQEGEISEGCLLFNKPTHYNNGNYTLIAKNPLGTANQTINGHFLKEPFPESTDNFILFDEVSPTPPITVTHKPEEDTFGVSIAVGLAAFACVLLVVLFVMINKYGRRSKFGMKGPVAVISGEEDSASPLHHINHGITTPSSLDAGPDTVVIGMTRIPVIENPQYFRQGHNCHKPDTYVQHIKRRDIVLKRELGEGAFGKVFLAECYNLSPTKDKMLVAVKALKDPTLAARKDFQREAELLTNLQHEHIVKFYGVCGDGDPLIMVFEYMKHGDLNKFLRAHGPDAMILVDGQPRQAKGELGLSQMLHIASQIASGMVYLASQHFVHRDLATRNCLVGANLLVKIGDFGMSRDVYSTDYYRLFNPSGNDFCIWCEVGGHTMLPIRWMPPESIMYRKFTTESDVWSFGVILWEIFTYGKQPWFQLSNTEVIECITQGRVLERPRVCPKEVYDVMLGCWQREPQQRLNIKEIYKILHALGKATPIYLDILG
T9 sequence (P08922 whole entry, change not shown, the tested form may be a part): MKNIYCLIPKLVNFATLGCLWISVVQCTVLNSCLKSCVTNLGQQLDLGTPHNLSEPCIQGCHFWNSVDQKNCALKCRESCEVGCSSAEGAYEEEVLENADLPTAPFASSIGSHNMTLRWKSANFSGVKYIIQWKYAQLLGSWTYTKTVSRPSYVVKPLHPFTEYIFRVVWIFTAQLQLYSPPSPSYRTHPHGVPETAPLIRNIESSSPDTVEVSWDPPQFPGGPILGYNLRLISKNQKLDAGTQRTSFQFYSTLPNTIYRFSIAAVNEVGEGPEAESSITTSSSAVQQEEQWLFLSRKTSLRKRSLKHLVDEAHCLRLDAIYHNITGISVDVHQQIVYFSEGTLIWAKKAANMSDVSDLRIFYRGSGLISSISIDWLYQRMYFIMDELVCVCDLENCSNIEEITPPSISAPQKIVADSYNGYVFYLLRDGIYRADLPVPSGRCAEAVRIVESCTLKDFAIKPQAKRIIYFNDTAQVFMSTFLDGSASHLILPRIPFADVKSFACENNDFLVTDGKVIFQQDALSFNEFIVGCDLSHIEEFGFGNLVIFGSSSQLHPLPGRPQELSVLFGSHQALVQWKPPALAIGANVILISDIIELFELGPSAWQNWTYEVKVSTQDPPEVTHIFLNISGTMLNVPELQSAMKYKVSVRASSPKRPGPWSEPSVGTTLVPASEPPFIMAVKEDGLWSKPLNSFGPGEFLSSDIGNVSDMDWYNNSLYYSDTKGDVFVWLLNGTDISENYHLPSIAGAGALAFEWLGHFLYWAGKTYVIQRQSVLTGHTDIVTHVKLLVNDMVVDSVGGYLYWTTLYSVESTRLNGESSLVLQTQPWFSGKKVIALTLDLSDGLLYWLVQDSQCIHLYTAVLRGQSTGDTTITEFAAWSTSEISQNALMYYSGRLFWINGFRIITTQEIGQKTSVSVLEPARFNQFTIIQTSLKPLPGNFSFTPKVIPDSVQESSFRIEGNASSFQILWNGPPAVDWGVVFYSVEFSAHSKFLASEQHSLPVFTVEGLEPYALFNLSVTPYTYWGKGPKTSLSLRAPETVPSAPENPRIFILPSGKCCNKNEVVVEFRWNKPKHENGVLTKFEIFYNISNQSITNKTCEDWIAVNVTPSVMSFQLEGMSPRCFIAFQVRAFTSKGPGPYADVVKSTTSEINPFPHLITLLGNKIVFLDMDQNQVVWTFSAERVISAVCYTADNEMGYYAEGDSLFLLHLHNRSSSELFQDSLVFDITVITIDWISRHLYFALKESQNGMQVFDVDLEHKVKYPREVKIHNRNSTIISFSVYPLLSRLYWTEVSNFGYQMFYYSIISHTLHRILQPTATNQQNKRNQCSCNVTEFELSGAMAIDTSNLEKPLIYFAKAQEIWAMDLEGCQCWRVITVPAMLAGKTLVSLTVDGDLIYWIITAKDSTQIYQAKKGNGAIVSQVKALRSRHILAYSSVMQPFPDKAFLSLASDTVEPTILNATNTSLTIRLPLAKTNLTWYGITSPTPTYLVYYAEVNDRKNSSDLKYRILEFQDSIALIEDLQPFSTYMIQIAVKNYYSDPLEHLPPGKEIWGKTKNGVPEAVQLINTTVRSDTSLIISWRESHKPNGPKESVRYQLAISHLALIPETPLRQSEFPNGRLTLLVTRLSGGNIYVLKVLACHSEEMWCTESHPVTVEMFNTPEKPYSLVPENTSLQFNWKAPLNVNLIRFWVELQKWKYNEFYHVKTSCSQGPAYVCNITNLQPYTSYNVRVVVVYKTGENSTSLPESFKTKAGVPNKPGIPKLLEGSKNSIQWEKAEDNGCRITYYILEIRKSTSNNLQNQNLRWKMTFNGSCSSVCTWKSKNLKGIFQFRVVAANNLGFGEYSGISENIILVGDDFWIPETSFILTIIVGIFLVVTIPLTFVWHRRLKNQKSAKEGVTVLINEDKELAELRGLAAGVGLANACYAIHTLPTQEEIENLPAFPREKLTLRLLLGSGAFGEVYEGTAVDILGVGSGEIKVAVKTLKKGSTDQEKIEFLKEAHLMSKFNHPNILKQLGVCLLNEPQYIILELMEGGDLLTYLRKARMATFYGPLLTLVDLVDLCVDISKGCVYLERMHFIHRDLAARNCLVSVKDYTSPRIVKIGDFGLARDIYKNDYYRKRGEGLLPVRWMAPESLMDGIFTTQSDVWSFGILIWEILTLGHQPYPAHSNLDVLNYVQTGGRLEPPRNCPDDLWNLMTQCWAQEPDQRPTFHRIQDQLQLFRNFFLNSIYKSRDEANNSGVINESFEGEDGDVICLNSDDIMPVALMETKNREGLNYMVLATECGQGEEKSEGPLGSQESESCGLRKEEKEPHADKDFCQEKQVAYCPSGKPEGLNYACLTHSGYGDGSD
T8 sequence (P04629 whole entry, change not shown, the tested form may be a part): as the sequence (P04629 whole entry F589L, the tested form may be a part) above, with L589F counted along it
T11 sequence (P04629 whole entry G595R, the tested form may be a part): as the sequence (P04629 whole entry F589L, the tested form may be a part) above, with L589F, G595R counted along it
T13 sequence (Q16288 whole entry G623R, the tested form may be a part): as the sequence (Q16288 whole entry, change not shown, the tested form may be a part) above, with G623R counted along it

| IC50 (ALK) [nM] | IC50 (Ros1) [nM] | IC50 (TrkA) [nM] | IC50 (TrkA-G595R) [nM] | IC50 (TrkA-G667C) [nM] | IC50 (TrkC) [nM] | GI50 (Ba/F3 LMNA-NTRK1-F589L) [nM] | GI50 (Ba/F3 LMNA-NTRK1-WT) [nM] | GI50 (Ba/F3 SLC34A2-ROS1-WT) [nM] | GI50 (BaF3 ETV6-NTRK3-WT) [nM] | GI50 (BaF3 LMNA-NTRK1-G595R) [nM] | GI50 (BaF3 LMNA-NTRK1-G667A) [nM] | GI50 (BaF3 ETV6-NTRK3-G623R) [nM] | Apparent clearance Cl ([1]; IV, 3 mg/kg) [mL/min/kg] | Apparent volume of distribution Vd ([1]; IV, 3 mg/kg) [L/kg] | Area under the curve AUC0-last ([1]; IV, 3 mg/kg) [µM·h] | Half-life T1/2 ([1]; IV, 3 mg/kg) [min] | Area under the curve AUC0-last ([1]; PO, 10 mg/kg) [µM·h] | Bioavailability F % ([1]; PO, 10 mg/kg) [%] | Time to peak Tmax ([1]; PO, 10 mg/kg) [min] | SMILES | also measured |
| --- | --- | --- | --- | --- | --- | --- | --- | --- | --- | --- | --- | --- | --- | --- | --- | --- | --- | --- | --- | --- | --- |
| > 1000 | 12.8 | 0.7 | 0.2 | 0.1 | 0.1 | 204 | 1.6 | > 1000 | 1.8 | 5 | 2 | 8.6 | 44.0 | 1.4 | 2.748 | 30 | 2.282 | 25 | 30 | C[C@@H]1COC[C@@H]2c3cc(F)cnc3O[C@@H](C)CNC(=O)c3cnn4ccc(nc34)N12 [WX008] | Cmax ([1]; PO, 10 mg/kg): 1130 nM |
| > 1000 | 4.8 | 0.7 | 0.3 | 0.1 | 0.1 | 189 | 1.5 | 900 | 3.2 | 8.4 | 2 | 14.2 | 32.9 | 1.3 | 3.818 | 36 | 6.637 | 53 | 30 | C[C@@H]1COc2ncc(F)cc2[C@H]2COC[C@@H](C)N2c2ccn3ncc(c3n2)C(=O)N1 [WX006] | Cmax ([1]; PO, 10 mg/kg): 3750 nM |
| 51.3 | 0.1 | 1.8 | 0.9 | 2.9 | 0.1 | 15.8 | 1 | 50 | 2.2 | 7.4 | 7.3 | 12.9 | 19.0 | 1.3 | 6.19 | 54 | 9.696 | 49 | 78 | O=C1NC2(CC2)COc2ncc(F)cc2[C@H]2CCOCCN2c2ccn3ncc1c3n2 [WX009A] | Cmax ([1]; PO, 10 mg/kg): 2630 nM |
